According to patent US20240148821A1, “PHARMACEUTICAL USE OF CYCLIC PEPTIDE COMPOUND” (CHUGAI SEIYAKU KABUSHIKI KAISHA, priority 2021, published 2024):
Numbered stars: 1 amine (or outer) side, 2 acyl side, 3 side chain; on linkers, the order of the positions; unused ones are H or OH. Bridge positions count the residues as written; N and C are the ends. Square brackets hold non-standard residues; d marks the D form. Peptide text beside a SMILES is read from it. * marks the point of attachment. hPhe(3-Cl-4-CF3) = N[C@@H](CCc1ccc(C(F)(F)F)c(Cl)c1)C(=O)O; hPhe(4-CF3) = N[C@@H](CCc1ccc(C(F)(F)F)cc1)C(=O)O; dβ3h(hPhe) = O=C(C[C@@H](CCc1ccccc1)N[*:1])[*:2]; 3Oxa8azabicyclo(3.2.1)octane = C1CC2COCC1N2*; NMePhe(4-Cl) = CN[C@@H](Cc1ccc(Cl)cc1)C(=O)O; NEtPhe(2-Cl) = CCN[C@@H](Cc1ccccc1Cl)C(=O)O; NMePhe(4-Me) = CN[C@@H](Cc1ccc(C)cc1)C(=O)O; X99 = O=C([C@H](CCc1ccc(F)cc1F)N[*:1])[*:2]; NMedβ3hAla = C[C@H](CC(=O)[*:2])N(C)[*:1]; NGly(CH2(3-pyridyl)) = O=C(O)CNCc1cccnc1; X69 = CN(C)C(=O)COCCN(CC(=O)[*:2])[*:1]; NMeGly(cPent) = CN[C@H](C(=O)O)C1CCCC1; dβ3hPip = O=C(C[C@H]1CCCCN1[*:1])[*:2]; X136 = O=C(CN(CCN1CCNCC1)[*:1])[*:2]; X127 = COC/C=C/CN(CC(=O)[*:2])[*:1]; NMeCha = CN[C@@H](CC1CCCCC1)C(=O)O; NMeCba = CN[C@@H](CC1CCC1)C(=O)O; NMeChg = CN[C@H](C(=O)O)C1CCCCC1; NMeF = CN[C@@H](Cc1ccccc1)C(=O)O; NMeI = CC[C@H](C)[C@H](NC)C(=O)O; Gly(cBu) = N[C@H](C(=O)O)C1CCC1; NMeD = CN[C@@H](CC(=O)O)C(=O)O; NMeL = CN[C@@H](CC(C)C)C(=O)O; NMeV = CN[C@H](C(=O)O)C(C)C; d(β3hA) = C[C@@H](N)CC(=O)O; NMeS = CN[C@@H](CO)C(=O)O; NMeA = CN[C@@H](C)C(=O)O; NMeAib = CNC(C)(C)C(=O)O; Piperidide = C1CCN(*)CC1; Ac5c = NC1(C(=O)O)CCCC1; Aze = O=C(O)[C@@H]1CCN1; Sar = CNCC(=O)O; Propyl = CCC*

What follows are compounds tested against protein-protein interaction between Kras and SOS1 (biotin-tagged human Kras loaded with GDP, His-tagged human SOS1) (Homo sapiens (Human), UniProt P01116, G12D) (assay: Protein-protein interaction inhibition between Kras and SOS1 (KrasG12D-SOS PPI) using AlphaScreen). Details: AlphaScreen; biotin-tagged human Kras loaded with GDP, His-tagged human SOS1; read-out: KRAS G12D-SOS PPI IC50.
Type: biochemical

Compound	IC50 [nM]
CC[C@H](C)[C@@H]1NC(=O)[C@H](CC(C)C)N(C)C(=O)C[C@@H](C(=O)N2CCCCC2)N(C)C(=O)[C@H](C2CCCCC2)N(C)C(=O)C2(CCCC2)NC(=O)CN(CCN2CCNCC2)C(=O)[C@H](CCc2ccc(C(F)(F)F)c(Cl)c2)NC(=O)CN(C)C(=O)[C@H](CC2CCCCC2)N(C)C(=O)CN(C)C(=O)CN(C)C1=O [Compound 2184, (11S,17S,26S,29S,33S,36S)-11-[2-[3-chloro-4-(trifluoromethyl)phenyl]ethyl]-36-cyclohexyl-17-(cyclohexylmethyl)-29-isobutyl-15,18,21,24,30,34,37-heptamethyl-26-[(1S)-1-methylpropyl]-9-(2-piperazin-1-ylethyl)-33-(piperidine-1-carbonyl)-6,9,12,15,18,21,24,27,30,34,37-undecazaspiro[4.33]octatriacontane-7.10,13,16,19,22,25,28,31,35,38-undecone] ([NMeL]I[Sar][Sar][NMeCha][Sar][hPhe(3-Cl-4-CF3)][X136][Ac5c][NMeChg][NMeD]-Piperidide; lactam N-11)	7.9
CC[C@H](C)[C@@H]1NC(=O)[C@H](CC(C)C)N(C)C(=O)C[C@@H](C(=O)N2CCCCC2)N(C)C(=O)[C@H](C2CCCCC2)N(C)C(=O)C2(CCCC2)NC(=O)CN(Cc2cccnc2)C(=O)[C@H](CCc2ccc(C(F)(F)F)c(Cl)c2)NC(=O)CN(C)C(=O)[C@H](CC2CCCCC2)N(C)C(=O)CN(C)C(=O)CN(C)C1=O [Compound 2026] ([NMeL]I[Sar][Sar][NMeCha][Sar][hPhe(3-Cl-4-CF3)][NGly(CH2(3-pyridyl))][Ac5c][NMeChg][NMeD]-Piperidide; lactam N-11 (inferred); C-terminus assumed)	1.3
CC(C)C[C@H]1C(=O)N[C@@H](C2CCC2)C(=O)N(C)[C@@H](C)C(=O)N2CC[C@H]2C(=O)N(C)[C@@H](CC2CCCCC2)C(=O)N(C)CC(=O)N[C@@H](CCc2ccc(C(F)(F)F)c(Cl)c2)C(=O)N2CCC[C@H]2C(=O)NC2(CCCC2)C(=O)N(C)[C@@H](C(C)C)C(=O)N[C@H](C)CC(=O)N1C [Compound 580] (cyclo([Ac5c][NMeV][d(β3hA)][NMeL][Gly(cBu)][NMeA][Aze][NMeCha][Sar][hPhe(3-Cl-4-CF3)]P))	66
CCCOC[C@H]1C(=O)N(C)CC(=O)N[C@@H](CCc2ccc(C(F)(F)F)c(Cl)c2)C(=O)N2CCC[C@H]2C(=O)NC2(CCCC2)C(=O)N(C)[C@@H](C2CCCC2)C(=O)N(C)[C@H](C)CC(=O)N(C)[C@@H](CC(C)C)C(=O)N[C@@H]([C@@H](C)CC)C(=O)N(C)[C@@H](C)C(=O)N2CC[C@H]2C(=O)N1C [Compound 366] (cyclo([Ac5c][NMeGly(cPent)][NMedβ3hAla][NMeL]I[NMeA][Aze][NMeS](Propyl)[Sar][hPhe(3-Cl-4-CF3)]P))	4
CC[C@H](C)[C@@H]1NC(=O)[C@H](CC(C)C)N(C)C(=O)C[C@@H](C(=O)N2CCCCC2)N(C)C(=O)[C@H](C2CCCCC2)N(C)C(=O)C2(CCCC2)NC(=O)CN(CCOCC(=O)N(C)C)C(=O)[C@H](CCc2ccc(C(F)(F)F)c(Cl)c2)NC(=O)CN(C)C(=O)[C@H](CC2CCCCC2)N(C)C(=O)CN(C)C(=O)CN(C)C1=O [Compound 2038, 2-[2-[(11S,17S,26S,29S,33S,36S)-11-[2-[3-chloro-4-(Trifluoromethyl)phenyl]ethyl]-36-cyclohexyl-17-(cyclohexylmethyl)-29-isobutyl-15,18,21,24,30,34,37-heptamethyl-26-[(1S)-1-methylpropyl]-7,10,13,16,19,22,25,28,31,35,38-undecaoxo-33-(piperidine-1-carbonyl)-6,9,12,15,18,21,24,27,30,34,37-undecazaspiro[4.33]octatriacontan-9-yl]ethoxy]-N,N-dimethyl-acetamide] ([NMeL]I[Sar][Sar][NMeCha][Sar][hPhe(3-Cl-4-CF3)][X69][Ac5c][NMeChg][NMeD]-Piperidide; lactam N-11)	8.3
CC(C)C[C@H]1C(=O)N[C@@H](C2CCC2)C(=O)N(C)[C@@H](C)C(=O)N2CC[C@H]2C(=O)N(C)[C@@H](CC2CCCCC2)C(=O)N(C)CC(=O)N[C@@H](CCc2ccc(C(F)(F)F)c(Cl)c2)C(=O)N2CCC[C@H]2C(=O)NC2(CCCC2)C(=O)N(C)[C@@H](C(C)C)C(=O)N(C)[C@H](C(=O)N2CCCCC2)CC(=O)N1C [Compound 157] ([NMeL][Gly(cBu)][NMeA][Aze][NMeCha][Sar][hPhe(3-Cl-4-CF3)]P[Ac5c][NMeV][NMeD]-Piperidide; lactam N-11)	7.5
CC[C@H](C)[C@@H]1NC(=O)[C@H](CC(C)C)N(C)C(=O)C[C@@H](C(=O)N2CCCCC2)N(C)C(=O)[C@H](C(C)C)N(C)C(=O)C2(CCCC2)NC(=O)[C@@H]2CCCN2C(=O)[C@H](CCc2ccc(C(F)(F)F)c(Cl)c2)NC(=O)CN(C)C(=O)[C@H](CC2CCCCC2)N(C)C(=O)[C@@H]2CCN2C(=O)[C@H](C)NC1=O [Compound 1334] ([NMeL]IA[Aze][NMeCha][Sar][hPhe(3-Cl-4-CF3)]P[Ac5c][NMeV][NMeD]-Piperidide; lactam N-11)	3
CC[C@H](C)[C@@H]1NC(=O)[C@H](C)N(C)C(=O)C[C@@H](C(=O)N(C)C)N(C)C(=O)[C@H]([C@@H](C)CC)N(C)C(=O)C2(CCCC2)NC(=O)[C@H](Cc2ccccc2Cl)N(CC)C(=O)[C@H](CCc2ccc(C(F)(F)F)c(Cl)c2)NC(=O)CN(C)C(=O)[C@H](Cc2ccc(C)cc2)N(C)C(=O)[C@@H]2CCN2C(=O)[C@H](C)N(C)C1=O [Compound 2163] ([NMeA]I[NMeA][Aze][NMePhe(4-Me)][Sar][hPhe(3-Cl-4-CF3)][NEtPhe(2-Cl)][Ac5c][NMeI][NMeD]-NMe2; lactam N-11)	73
CC[C@H](C)[C@@H]1NC(=O)[C@H](C)N(C)C(=O)C[C@H]2CCCCN2C(=O)[C@H](C(C)C)N(C)C(=O)[C@H](Cc2ccccc2)N(C)C(=O)[C@H](CC(C)C)N(C)C(=O)[C@H](CCc2ccc(C(F)(F)F)cc2)NC(=O)CN(C)C(=O)[C@H](Cc2ccc(Cl)cc2)N(C)C(=O)CN(C)C(=O)CN(C)C1=O [Compound 512] (cyclo(I[Sar][Sar][NMePhe(4-Cl)][Sar][hPhe(4-CF3)][NMeL][NMeF][NMeV][dβ3hPip][NMeA]))	150
CC[C@H](C)[C@@H]1NC(=O)[C@H](CC(C)C)N(C)C(=O)C[C@@H](C(=O)N2CCCCC2)N(C)C(=O)[C@H](C2CCCCC2)N(C)C(=O)C2(CCCC2)NC(=O)CN(C/C=C/COC)C(=O)[C@H](CCc2ccc(C(F)(F)F)c(Cl)c2)NC(=O)CN(C)C(=O)[C@H](CC2CCCCC2)N(C)C(=O)CN(C)C(=O)CN(C)C1=O [Compound 2051, (11S,17S,26S,29S,33S,36S)-11-[2-[3-chloro-4-(trifluoromethyl)phenyl]ethyl]-36-cyclohexyl-17-(cyclohexylmethyl)-29-isobutyl-9-[(E)-4-methoxybut-2-enyl]-15,18,21,24,30,34,37-heptamethyl-26-[(1S)-1-methylpropyl]-33-(piperidine-1-carbonyl)-6,9,12,15,18,21,24,27,30,34,37-undecazaspiro[4.33]octatriacontane-7,10,13,16,19,22,25,28,31,35,38-undecone] ([NMeL]I[Sar][Sar][NMeCha][Sar][hPhe(3-Cl-4-CF3)][X127][Ac5c][NMeChg][NMeD]-Piperidide; lactam N-11)	2.5
CC[C@H](C)[C@@H]1NC(=O)[C@H](CC(C)C)N(C)C(=O)C[C@@H](C(=O)N2C3CCC2COC3)N(C)C(=O)[C@H]([C@@H](C)CC)N(C)C(=O)C2(CCCC2)NC(=O)[C@@H]2CCCN2C(=O)[C@H](CCc2ccc(C(F)(F)F)c(Cl)c2)NC(=O)CN(C)C(=O)[C@H](C2CCCC2)N(C)C(=O)[C@@H]2CCN2C(=O)[C@H](C)N(C)C1=O [Compound 1002] ([NMeL]I[NMeA][Aze][NMeGly(cPent)][Sar][hPhe(3-Cl-4-CF3)]P[Ac5c][NMeI][NMeD]-{3Oxa8azabicyclo(3.2.1)octane}; lactam N-11)	2.1
CC[C@H](C)[C@@H]1NC(=O)[C@H](C)N(C)C(=O)C[C@@H](C)NC(=O)[C@H](CC(C)C)N(C)C(=O)[C@H](Cc2ccccc2)N(C)C(=O)[C@H](CC(C)C)NC(=O)[C@H](CCc2ccc(F)cc2F)NC(=O)CN(C)C(=O)[C@H](Cc2ccc(Cl)cc2)N(C)C(=O)CN(C)C(=O)CN(C)C1=O [Compound 2089] (cyclo(I[Sar][Sar][NMePhe(4-Cl)][Sar][X99]L[NMeF][NMeL][d(β3hA)][NMeA]))	300
CC[C@H](C)[C@@H]1NC(=O)[C@H](C)N(C)C(=O)C[C@@H](C)N(C)C(=O)[C@H](CC2CCC2)N(C)C(=O)C(C)(C)N(C)C(=O)[C@@H]2CCCN2C(=O)[C@H](CCc2ccc(C(F)(F)F)c(Cl)c2)NC(=O)CN(C)C(=O)[C@H](CC2CCCCC2)N(C)C(=O)[C@@H]2CCN2C(=O)[C@H](C)N(C)C1=O [Compound 2152] (cyclo([Aze][NMeCha][Sar][hPhe(3-Cl-4-CF3)]P[NMeAib][NMeCba][NMedβ3hAla][NMeA]I[NMeA]))	71
CC[C@H](C)[C@@H]1NC(=O)[C@H](C2CCCCC2)N(C)C(=O)C[C@@H](C)NC(=O)[C@H](C(C)C)N(C)C(=O)C2(CCCC2)NC(=O)[C@@H]2CCCN2C(=O)[C@H](CCc2ccc(C(F)(F)F)c(Cl)c2)NC(=O)CN(C)C(=O)[C@H](CC2CCCCC2)N(C)C(=O)[C@@H]2CCN2C(=O)[C@H](C)N(C)C1=O [Compound 873] (cyclo([Ac5c][NMeV][d(β3hA)][NMeChg]I[NMeA][Aze][NMeCha][Sar][hPhe(3-Cl-4-CF3)]P))	51
CC[C@H](C)[C@@H]1NC(=O)[C@H](CC(C)C)N(C)C(=O)C[C@@H](CCc2ccccc2)NC(=O)[C@H]([C@@H](C)CC)N(C)C(=O)C2(CCCC2)NC(=O)[C@@H]2CCCN2C(=O)[C@H](CCc2ccc(C(F)(F)F)c(Cl)c2)NC(=O)CN(C)C(=O)[C@H](Cc2ccc(C)cc2)N(C)C(=O)[C@@H]2CCN2C(=O)[C@H](C)N(C)C1=O [Compound 1874] (cyclo([Ac5c][NMeI][dβ3h(hPhe)][NMeL]I[NMeA][Aze][NMePhe(4-Me)][Sar][hPhe(3-Cl-4-CF3)]P))	400
CC[C@H](C)[C@@H]1NC(=O)[C@H](C)N(C)C(=O)C[C@@H](C)NC(=O)[C@H](CC(C)C)N(C)C(=O)[C@H](Cc2ccccc2)N(C)C(=O)[C@H](C)N(C)C(=O)[C@H](CCc2ccc(C(F)(F)F)cc2)NC(=O)CN(C)C(=O)[C@H](Cc2ccc(Cl)cc2)N(C)C(=O)CN(C)C(=O)CN(C)C1=O [Compound 978] (cyclo(I[Sar][Sar][NMePhe(4-Cl)][Sar][hPhe(4-CF3)][NMeA][NMeF][NMeL][d(β3hA)][NMeA]))	170
